The numbers were not newly measured in patent publication US6511968B1, “Combination therapy for treating, preventing, or reducing the risks associated with acute coronary ischemic syndrome and related conditions” (Merck & Co., Inc., priority 1998, dated 2003), which cites them from elsewhere.

Structures can show the parent of a compound that is named as a salt. Where a SMILES comes first, the peptide text is derived from it. Bridges are numbered along the chain shown (N, C = ends). [ ]: non-standard residue; d: D form. hArg = N=C(N)NCCCC[C@H](N)C(=O)O; Mpa = O=C(O)CCS

One data set deals with GP IIb/IIIa (Homo sapiens, UniProt P05106+P08514). Conditions: for selectivity for GPIIb/IIIa: administered intravenously.
Chain of GP IIb/IIIa (P08514 32-887 limits assumed): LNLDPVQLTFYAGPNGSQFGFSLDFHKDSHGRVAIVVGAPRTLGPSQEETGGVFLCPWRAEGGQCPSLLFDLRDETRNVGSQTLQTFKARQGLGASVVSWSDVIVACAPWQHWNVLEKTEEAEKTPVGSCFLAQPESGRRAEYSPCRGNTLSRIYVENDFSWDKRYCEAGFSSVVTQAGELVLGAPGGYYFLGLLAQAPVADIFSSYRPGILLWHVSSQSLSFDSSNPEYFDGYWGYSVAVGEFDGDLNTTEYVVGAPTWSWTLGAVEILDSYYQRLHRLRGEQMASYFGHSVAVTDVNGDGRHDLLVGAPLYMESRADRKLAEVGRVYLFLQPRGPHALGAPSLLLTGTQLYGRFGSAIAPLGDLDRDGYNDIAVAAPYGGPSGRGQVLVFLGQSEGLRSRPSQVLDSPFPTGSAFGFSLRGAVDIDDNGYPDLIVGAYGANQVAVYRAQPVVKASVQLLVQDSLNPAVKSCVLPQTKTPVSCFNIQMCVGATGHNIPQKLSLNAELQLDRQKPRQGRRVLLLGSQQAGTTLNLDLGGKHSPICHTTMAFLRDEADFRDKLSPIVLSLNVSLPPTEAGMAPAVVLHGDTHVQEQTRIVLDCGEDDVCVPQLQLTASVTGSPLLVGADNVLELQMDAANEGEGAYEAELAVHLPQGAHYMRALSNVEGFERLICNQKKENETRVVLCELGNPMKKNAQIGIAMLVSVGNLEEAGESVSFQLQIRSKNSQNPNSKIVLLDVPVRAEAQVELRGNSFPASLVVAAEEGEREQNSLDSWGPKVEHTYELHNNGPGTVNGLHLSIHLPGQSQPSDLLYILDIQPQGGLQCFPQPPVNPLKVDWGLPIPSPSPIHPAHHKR
Chain of GP IIb/IIIa (P08514 891-1039 partner limits assumed): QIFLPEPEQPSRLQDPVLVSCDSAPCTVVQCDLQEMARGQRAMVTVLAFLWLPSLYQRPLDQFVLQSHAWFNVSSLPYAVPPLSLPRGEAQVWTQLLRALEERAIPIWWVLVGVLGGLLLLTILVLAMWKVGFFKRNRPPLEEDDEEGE
Chain of GP IIb/IIIa (P05106 27-788): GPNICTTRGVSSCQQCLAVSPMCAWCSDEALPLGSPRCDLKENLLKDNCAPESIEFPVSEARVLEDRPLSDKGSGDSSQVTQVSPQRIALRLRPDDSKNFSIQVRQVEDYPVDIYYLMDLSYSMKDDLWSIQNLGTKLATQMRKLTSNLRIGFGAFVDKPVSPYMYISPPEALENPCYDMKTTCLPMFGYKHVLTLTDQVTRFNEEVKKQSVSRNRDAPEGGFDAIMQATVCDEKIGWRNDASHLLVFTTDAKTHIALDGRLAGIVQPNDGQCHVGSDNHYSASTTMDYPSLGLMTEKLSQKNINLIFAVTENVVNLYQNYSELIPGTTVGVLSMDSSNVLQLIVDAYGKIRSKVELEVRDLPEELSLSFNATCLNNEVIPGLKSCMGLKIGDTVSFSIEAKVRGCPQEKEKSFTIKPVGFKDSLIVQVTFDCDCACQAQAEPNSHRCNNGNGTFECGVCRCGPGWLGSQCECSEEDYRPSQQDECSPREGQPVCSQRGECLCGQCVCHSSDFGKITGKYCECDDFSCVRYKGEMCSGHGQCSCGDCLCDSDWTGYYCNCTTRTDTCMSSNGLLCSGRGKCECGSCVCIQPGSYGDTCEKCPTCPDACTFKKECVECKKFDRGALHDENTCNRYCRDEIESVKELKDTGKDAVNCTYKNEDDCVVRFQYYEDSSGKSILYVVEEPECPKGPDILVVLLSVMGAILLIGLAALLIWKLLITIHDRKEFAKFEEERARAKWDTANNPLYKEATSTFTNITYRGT
The conditions of data set [1]: prodrug.
In another data set the target is αvβ3 (Homo sapiens, UniProt P05106+P06756).
Chain of αvβ3 (P06756 31-889 limits assumed): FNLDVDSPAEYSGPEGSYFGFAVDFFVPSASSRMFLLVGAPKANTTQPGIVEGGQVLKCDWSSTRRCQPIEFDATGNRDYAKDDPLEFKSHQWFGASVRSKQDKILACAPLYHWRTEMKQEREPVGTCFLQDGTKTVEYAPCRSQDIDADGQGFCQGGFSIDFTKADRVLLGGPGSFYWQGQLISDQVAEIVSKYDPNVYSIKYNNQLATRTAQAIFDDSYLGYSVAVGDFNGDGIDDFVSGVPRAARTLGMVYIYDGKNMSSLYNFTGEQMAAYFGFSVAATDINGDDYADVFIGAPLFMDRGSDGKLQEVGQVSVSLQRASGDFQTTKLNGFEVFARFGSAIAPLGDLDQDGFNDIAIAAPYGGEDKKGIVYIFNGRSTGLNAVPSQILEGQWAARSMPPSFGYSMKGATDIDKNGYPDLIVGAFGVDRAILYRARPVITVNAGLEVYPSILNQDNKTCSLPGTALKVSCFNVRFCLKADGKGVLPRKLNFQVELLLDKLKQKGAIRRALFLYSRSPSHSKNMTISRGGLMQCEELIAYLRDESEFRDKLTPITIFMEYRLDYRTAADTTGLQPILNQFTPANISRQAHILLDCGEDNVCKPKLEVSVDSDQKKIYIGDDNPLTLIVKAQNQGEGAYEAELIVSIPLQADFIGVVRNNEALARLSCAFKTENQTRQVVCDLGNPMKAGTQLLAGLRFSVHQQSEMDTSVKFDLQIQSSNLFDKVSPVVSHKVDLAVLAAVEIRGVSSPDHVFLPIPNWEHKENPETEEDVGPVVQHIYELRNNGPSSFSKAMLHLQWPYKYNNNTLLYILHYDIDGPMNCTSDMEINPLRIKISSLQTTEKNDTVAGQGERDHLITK
Chain of αvβ3 (P06756 891-1048 partner limits assumed): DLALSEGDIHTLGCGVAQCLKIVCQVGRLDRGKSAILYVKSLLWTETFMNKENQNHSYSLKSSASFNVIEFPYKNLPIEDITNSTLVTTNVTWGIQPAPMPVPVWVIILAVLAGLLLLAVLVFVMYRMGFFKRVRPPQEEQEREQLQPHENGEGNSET
Chain of αvβ3 (P05106 27-788): as the sequence (P05106 27-788) above
The next data set deals with platelet aggregation. Conditions: increasing concentrations added to platelet-rich plasma in vitro or incremental doses in vivo.

Regarding `CCCCS(=O)(=O)N[C@@H](Cc1ccc(OCCCCC2CCNCC2)cc1)C(=O)O` [MK-383, 2-S-(n-Butylsulfonylamino)-3[4-piperidin-4-yl)butyloxyphenyl]propionic acid hydrochloride], at GP IIb/IIIa, the “selectivity for GPIIb/IIIa” value is “selective for GPIIb/IIIa”. Turning to `C#C[C@H](CC(=O)OCC)NC(=O)CCC(=O)Nc1ccc(C(=N)N)cc1` [SC54684, ethyl 3-[[4-[[4-(aminoiminomethyl)phenyl]amino]-1,4-dioxobutyl]amino]-4-pentynoate], in data set [1], the oral bioavailability entry is recorded as “high oral bioavailability”. For the molecule `N=C(N)c1ccc(C(=O)N[C@@H](Cc2ccc(O)cc2)C(=O)N2CCC(OCC(=O)O)CC2)cc1` [Ro 44-9883], the “selectivity for GPIIb/IIIa” value at GP IIb/IIIa is given as “selective for GPIIb/IIIa”. Consider `N=C(N)NCCCC[C@@H]1NC(=O)CCSSC[C@@H](C(N)=O)NC(=O)[C@@H]2CCCN2C(=O)[C@H](Cc2c[nH]c3ccccc23)NC(=O)[C@H](CC(=O)O)NC(=O)CNC1=O` [Integrelin] ([Mpa][hArg]GDWPC-NH2; disulfide 1-7), for which, on αvβ3, the “effect on ligand binding to αvβ3 / receptor blockade” value was “very little effect”. The “inhibition of ligand binding to GP IIb/IIIa / receptor blockade” value on GP IIb/IIIa is recorded as “inhibits ligand binding to GP IIb/IIIa”.

B1: c7E3 Fab: c7E3 Fab form of the 7E3 antibody (antibody, chains of the INN, looked up, V domains shown)
VH: EVQLQQSGTVLARPGASVKMSCEASGYTFTNYWMHWVKQRPGQGLEWIGAIYPGNSDTSYIQKFKGKAKLTAVTSTTSVYMELSSLTNEDSAVYYCTLYDGYYVFAYWGQGTLVTVSA
VL: EIVLTQSPVTLSVTPGDSVSLSCRASRDISNNLHWFQQTSHESPRLLIKYASQSMSGIPSRFSGSGSGTDFTLSINSVETEDFGMYFCQQTNSWPYTFGGGTKLEIK
modifications: Fab
notes: c7E3 Fab form of the 7E3 antibody
For the molecule B1, the platelet aggregation result in the data set with platelet aggregation is “profoundly inhibited”.
